# Where two headings read alike, the source gives them in different places.
# What was measured:
# H3122 cells (NSCLC) = format: cell-based; conditions: Homo sapiens
# [1] = system: DFCI76 (L1152R) cells (NSCLC); format: cell-based; conditions: read-out: IC50 Tumor Cell Line DFCI76 (L1152R)
# SRPK1 = SRPK1 (Homo sapiens (Human), UniProt Q96SB4); test: SRPK1 inhibitory activity; format: biochemical
# SRPK2 = SRPK2 (Homo sapiens (Human), UniProt P78362); test: SRPK2 inhibitory activity; format: biochemical
# [2] = target: CD74-ROS transduced Ba/F3 cells (Homo sapiens, UniProt P08922); test: Ba/F3 proliferation assay; format: cell-based; conditions: read-out: IC50 Ba/F3 CD74-ROS; Table 6
# [3] = target: del19EGFR transduced Ba/F3 cells (Homo sapiens, UniProt P00533, cells depend on it, form not given); test: Ba/F3 proliferation assay; format: cell-based; conditions: read-out: IC50 Ba/F3 del19EGFR; Table 6
# [4] = system: mutant EGFR PC9 cell line; conditions: in words
# [5] = target: EML4-ALK C1156Y transformed Ba/F3 cells (Homo sapiens, UniProt Q9UM73, C1156Y, cells depend on it); test: Ba/F3 dose escalation MTS viability assay; format: cell-based; conditions: 72 hours
# [6] = target: EML4-ALK L1152R transformed Ba/F3 cells (Homo sapiens, UniProt Q9UM73, L1152R, cells depend on it); test: Ba/F3 dose escalation MTS viability assay; format: cell-based; conditions: 72 hours
# [7] = target: EML4-ALK G1202R transformed Ba/F3 cells (Homo sapiens, UniProt Q9UM73, G1202R, cells depend on it); test: Ba/F3 dose escalation MTS viability assay; format: cell-based; conditions: 72 hours
# [8] = target: EML4-ALK G1269A transformed Ba/F3 cells (Homo sapiens, UniProt Q9UM73, G1269A, cells depend on it); test: Ba/F3 dose escalation MTS viability assay; format: cell-based; conditions: 72 hours
# [9] = target: EML4-ALK S1206Y transformed Ba/F3 cells (Homo sapiens, UniProt Q9UM73, S1206Y, cells depend on it); test: Ba/F3 dose escalation MTS viability assay; format: cell-based; conditions: 72 hours
# [10] = system: EML4-ALK wt transformed Ba/F3 cells; test: Ba/F3 single point inhibition assay (MTS); format: cell-based; conditions: single dose 1 μM, 72 hours
# [11] = system: EML4-ALK^G1202R transformed Ba/F3 cells; test: Ba/F3 single point inhibition assay (MTS); format: cell-based; conditions: single dose 1 μM, 72 hours
# [12] = target: EML4-ALK^WT transformed Ba/F3 cells (Homo sapiens, UniProt Q9UM73); test: Ba/F3 dose escalation MTS viability assay; conditions: read-out: IC50 wt, 72 hours
# [13] = target: EML4-ALK L1196M transformed Ba/F3 cells (Homo sapiens, UniProt Q9UM73, L1196M, cells depend on it); test: Ba/F3 dose escalation MTS viability assay; conditions: read-out: IC50 L1196M, 72 hours
# panel of 456 kinases = test: KINOMESCAN kinase selectivity profiling; format: binding; conditions: screened at 1 μM
# [14] = mouse, in vivo, iv, 2 mg/kg, 8 h
Structure (SMILES),IC50 (SRPK1),IC50 (SRPK2),IC50 [5],IC50 [6],IC50 [7],IC50 [8],IC50 [9],"Percent viability of untreated control, wt [10]","Percent viability of untreated control, G1202R [11]",IC50 [12],IC50 [13],other results
CCc1cc2c(cc1N1CCC(N3CCOCC3)CC1)C(C)(C)c1[nH]c3cc(C#N)ccc3c1C2=O [Alectinib],11 nM,28.2 nM,–,–,–,–,–,–,–,–,–,"IC50 (H3122 cells (NSCLC); NCI-H3122, read-out: IC50 Tumor Cell Line H3122): 7 ± 4 nM; IC50 [1]: 26 ± 27 nM"
Cc1cc(Nc2ncc(Cl)c(Nc3ccccc3S(=O)(=O)C(C)C)n2)c(OC(C)C)cc1C1CCNCC1 [Ceritinib],–,–,–,–,–,–,–,–,–,–,–,"IC50 (H3122 cells (NSCLC); NCI-H3122, Table 6, read-out: IC50 Tumor Cell Line H3122): 13 ± 5 nM"
"CCc1cc2c(cc1-c1cnn(CC(=O)N(C)C)c1)C(C)(C)c1[nH]c3cc(C#N)ccc3c1C2=O [Compound 6, 2-(4-(3-cyano-9-ethyl-6,6-dimethyl-11-oxo-6,11-dihydro-5H-benzo[b]carbazol-8-yl)-1H-pyrazol-1-yl)-N,N-dimethylacetamide]",–,–,–,–,–,–,–,–,–,–,–,IC50 [2]: 678 ± 109 nM; IC50 [3]: 281 ± 1 nM; inhibition of mutant EGFR PC9 cell line [4]: not inhibited
"CCc1cc2c(cc1-c1cnn[nH]1)C(C)(C)c1[nH]c3cc(C#N)ccc3c1C2=O [Compound 13, 9-ethyl-6,6-dimethyl-11-oxo-8-(1H-1,2,3-triazol-5-yl)-6,11-dihydro-5H-benzo[b]carbazole-3-carbonitrile]",0.884 nM,7.46 nM,177 nM,345 nM,214 nM,256 nM,1610 nM,6%,7%,115 nM,629 nM,–
"CCc1cc2c(cc1-c1cnn(CCCN(C)C)c1)C(C)(C)c1[nH]c3cc(C#N)ccc3c1C2=O [Compound 32, 8-(1-(3-(dimethylamino)propyl)-1H-pyrazol-4-yl)-9-ethyl-6,6-dimethyl-11-oxo-6,11-dihydro-5H-benzo[b]carbazole-3-carbonitrile]",–,–,–,–,–,–,–,0%,0%,–,–,KINOMESCAN interactions mapped (panel of 456 kinases): 39; Conc. [14]: 80 nM

# Continued, in another order:
IC50 (SRPK1),IC50 (SRPK2),Structure (SMILES),IC50 [5],IC50 [6],IC50 [7],IC50 [8],IC50 [9],"Percent viability of untreated control, wt [10]","Percent viability of untreated control, G1202R [11]",IC50 [12],IC50 [13],other results
5.09 nM,14.5 nM,"CCc1cc2c(cc1-c1cnoc1)C(C)(C)c1[nH]c3cc(C#N)ccc3c1C2=O [Compound 10, 9-ethyl-8-(isoxazol-4-yl)-6,6-dimethyl-11-oxo-6,11-dihydro-5H-benzo[b]carbazole-3-carbonitrile]",116 nM,345 nM,80 nM,186 nM,728 nM,2%,3%,59 nM,634 nM,–
1.91 nM,6.6 nM,"CCc1cc2c(cc1-c1cnn(CCN(C)C)c1)C(C)(C)c1[nH]c3cc(C#N)ccc3c1C2=O [Compound 31, 8-(1-(2-(dimethylamino)ethyl)-1H-pyrazol-4-yl)-9-ethyl-6,6-dimethyl-11-oxo-6,11-dihydro-5H-benzo[b]carbazole-3-carbonitrile]",24 nM,548 nM,8 nM,11 nM,6 nM,1%,1%,2 nM,80 nM,–
